Assay results: patent US20260374769A1, “Crystalline Forms Of An Imidazopyridine Derivative” (Arisan Therapeutics Inc., priority 2023, published 2026)
Values after ≈ are worked out from the molar mass of the structure shown.

Assays:
[1] = test system: rats; test: 28-day GLP rat toxicity study; type: in vivo
Text: The same suspension formulation used in the mouse obesity model was used for the rat GLP toxicity study.

[2] = target: T1, human CB1R (Homo sapiens, UniProt P21554); test: CB1R Human Cannabinoid GPCR Cell Based Antagonist cAMP Assay (HTRF, CHO-K1 cells, CP55940 EC80); conditions: antagonist mode, CP55940 EC80, 20 uM forskolin, read-out: IC50 functional activity of CB1R
T1 construct: expressed in transfected cells; host or cells: CHO-K1
Experimental: CB1R Human Cannabinoid GPCR Cell Based Antagonist cAMP Assay
Evaluation of the potency (IC50) of Compound 1 for the human CB1R in stably transfected CHO-K1 cells was determined in a cAMP cell based assay using HTRF detection method. Cells were seeded in a total volume of 20 μL into white walled, 384-well microplates and incubated at 37 °C overnight prior to testing. Prior to testing cell plating media was exchanged with 10 μL of Assay buffer (HBSS+10 mM HEPES). Briefly, intermediate dilution of sample stocks was performed in assay buffer to generate a sample at 4× the final testing concentration. 5 μL of 4× sample was added to cells and incubated at 37 °C for 30 minutes. 5 μL of CP55940 at 4× the final EC80 concentration in 4× forskolin reagent (at 80 uM) was added and cells incubated for 37 °C for 30 minutes. The final concentration of forskolin in the assay was 20 uM. Final assay vehicle concentration was 1%. The results are expressed as a percent inhibition of CP55940 in antagonist mode.

[3] = test system: obese C57BL/6J DIO mice; test: Mouse DIO Obesity Study (four weeks, oral once a day); type: in vivo; conditions: 4 weeks
Experimental: To determine if Compound 1 might have anti-obesity activity through CB1R antagonism a four week in vivo study in obese C57BL/6J DIO mice was initiated to investigate weight gain, food intake and fasting blood glucose levels (see Table 62 for experimental design). A GMP lot of Compound 1 at different doses was evaluated and compared to DIO mice dosed with vehicle alone. The compound was formulated as a homogenous suspension with Vitamin-E-TPGS, PEG400, Glycerol, Methylcellulose, 10 mM Sodium Citrate buffer pH6 and water. Animals were orally gavaged once-a-day with either test article or vehicle for 4 weeks.

[4] = Water activity experiments (IPA/H2O); type: physicochemical
[5] = Hygroscopicity and sorption by DVS; type: physicochemical
Experimental: The hygroscopicity and the sorption properties of polymorphic Form A of Compound 1 were assessed using DVS.

[6] = Solubility in water and biorelevant media; type: physicochemical; conditions: room temperature
[7] = Slurry at room temperature (solid form after three days); type: physicochemical
Experimental: Slurry experiments were conducted at room temperature in various solvent systems. […] After the suspension was stirred magnetically for three days at room temperature, the remaining solids were isolated for XRPD analysis (Table 14).

[8] = Slurry at 50 °C (solid form after two days); type: physicochemical
Experimental: Slurry experiments were conducted at 50 °C in various solvent systems. […] After the suspension was stirred magnetically for two days at 50 °C, the remaining solids were isolated for XRPD analysis (Table 15).

[9] = Approximate solubility at room temperature in various solvents; type: physicochemical
[10] = Excipient compatibility study (4 weeks at 50 °C/75% RH); type: physicochemical
Experimental: The mixtures were placed in open containers and stored at 50 °C and 75% Relative Humidity (RH) for 4 weeks.

[11] = Solid vapor diffusion (solid form after seven days at RT); type: physicochemical
Experimental: Solid vapor diffusion experiments were conducted using various solvents. […] The 20-mL vial was then sealed with a cap and kept at RT for seven days allowing solvent vapor to interact with sample. The remaining solids were isolated for XRPD analysis (Table 16).

[12] = test system: CB1R; conditions: cited from earlier work

T1 sequence (P21554 whole entry): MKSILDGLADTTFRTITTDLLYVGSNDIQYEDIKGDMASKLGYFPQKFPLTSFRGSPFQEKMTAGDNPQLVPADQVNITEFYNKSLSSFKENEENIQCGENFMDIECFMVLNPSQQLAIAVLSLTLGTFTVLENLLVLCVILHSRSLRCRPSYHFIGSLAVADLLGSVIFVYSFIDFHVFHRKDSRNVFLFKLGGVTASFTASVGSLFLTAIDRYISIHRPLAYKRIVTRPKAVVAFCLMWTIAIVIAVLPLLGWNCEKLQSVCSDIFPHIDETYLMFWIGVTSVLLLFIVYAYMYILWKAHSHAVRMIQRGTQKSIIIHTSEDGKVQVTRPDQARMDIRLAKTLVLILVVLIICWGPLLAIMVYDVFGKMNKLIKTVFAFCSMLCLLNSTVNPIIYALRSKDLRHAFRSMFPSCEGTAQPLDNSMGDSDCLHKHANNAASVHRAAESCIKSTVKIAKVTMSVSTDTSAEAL

In the case of Cc1cc2ncc(-c3ccc(OC(C)(C)C)cc3)n2cc1-c1ccc(OC(C)C)cc1 [Compound 1, 3-(4-(tert-butoxy)phenyl)-6-(4-isopropoxyphenyl)-7-methylimidazo[1,2-a]pyridine], the “mean cholesterol vs vehicle” value ([1]; 28-day GLP rat toxicity study, FIG. 17) is reported as “significant dose-dependent decreases in mean cholesterol”, the cholesterol levels ([1]; all doses tested including 10, 30 and 50 mg/kg/day, 28-day) is reported as “significantly reduced” and the “CNS effect (functional observational battery)” value ([1]; rat 28-day GLP toxicity study) is reported as “no evidence of CNS effect”. For the same molecule, the IC50 [2] was 3.8 µM, the “food intake vs vehicle” value ([3]; 30 mg/kg/day) was “significantly lower” and the “body weight vs vehicle” value ([3]; 10 and 30 mg/kg/day) was “significant decreases in body weight”. The “fasting blood glucose vs vehicle” value ([3]; oral once-a-day, FIG. 16) was “no significant effect on fasting blood glucose”, the “percent weight gain vs vehicle” value ([3]; oral once-a-day, group 4 and 5, FIG. 15) was “significant dose-dependent drop in percent weight gain” and the “food intake vs vehicle” value ([3]; oral once-a-day, group 5, FIG. 15) was “significant reduced food intake”.

With Cc1cc2ncc(-c3ccc(OC(C)(C)C)cc3)n2cc1-c1ccc(OC(C)C)cc1 [Polymorphic Form A of Compound 1, 3-(4-(tert-butoxy)phenyl)-6-(4-isopropoxyphenyl)-7-methylimidazo[1,2-a]pyridine] the “Solid Form” value ([4]; H2O aw = 1) was “Form A”, the “Solid Form” value ([4]; IPA/H2O aw = 0.2, 982/18) was “Form A” and the “Solid Form” value ([4]; IPA/H2O aw = 0.4, 956/44) was “Form A + B”. The “Solid Form” value ([4]; IPA/H2O aw = 0.6, 919/81) was “Form C”, the “Solid Form” value ([4]; IPA/H2O aw = 0.8, 847/153) was “Form C” and the “weight increase (DVS)” value ([5]; 80% RH) was ~ 0.28%. For the same molecule, the “weight increase (DVS)” value ([5]; 95% RH) was “less than 0.5%”, the hygroscopicity ([5]; DVS) was “slightly hygroscopic” and the solubility at 24 h ([6]; FaSSIF, pH 6.73) was 0.041 mg/mL (≈ 0.0989 mM). For the same molecule, the solubility at 24 h ([6]; FeSSIF, pH 5.07) was 0.224 mg/mL (≈ 0.54 mM), the solubility at 24 h ([6]; Simulated Gastric Fluid (SGF), pH 2.38) was 0.532 mg/mL (≈ 1.28 mM) and the solubility at 24 h ([6]; Water, pH 6.63) was < 0.0125 mg/mL. For the same molecule, the “Solid Form” value ([7]; RT, 1,4 Dioxane:H2O (3:7)) was “Form A”, the “Solid Form” value ([7]; RT, ACN) was “Form A” and the “Solid Form” value ([7]; RT, ACN:H2O (4:6)) was “Form A”. For the same molecule, the “Solid Form” value ([7]; RT, DCM:n-Heptane (2:8)) was “Form A”, the “Solid Form” value ([7]; RT, DMF:H2O (3:7)) was “Form B” and the “Solid Form” value ([7]; RT, DMSO) was “Form A”. The “Solid Form” value ([7]; RT, DMSO:H2O (4:6)) was “Form B”, the “Solid Form” value ([7]; RT, EtOH:n-Heptane (2:8)) was “Form C” and the “Solid Form” value ([7]; RT, H2O) was “Form A”. For the same molecule, the “Solid Form” value ([7]; RT, MEK:n-Heptane (2:8)) was “Form A”, the “Solid Form” value ([7]; RT, MTBE) was “Form A” and the “Solid Form” value ([7]; RT, MTBE:n-Heptane (3:7)) was “Form D”. For the same molecule, the “Solid Form” value ([7]; RT, THF:n-Heptane (2:8)) was “Form A”, the “Solid Form” value ([7]; RT, n-Heptane) was “Form A” and the “Solid Form” value ([8]; ACN) was “Form A”. For the same molecule, the “Solid Form” value ([8]; ACN:H2O (1:1)) was “Form E”, the “Solid Form” value ([8]; DMSO) was “Amorphous” and the “Solid Form” value ([8]; DSMO:H2O (1:1)) was “Amorphous”. The “Solid Form” value ([8]; EtOH:H2O (1:1)) was “Form E”, the “Solid Form” value ([8]; H2O) was “Form A” and the “Solid Form” value ([8]; H2O:Acetone (7:3)) was “Form B”. For the same molecule, the “Solid Form” value ([8]; H2O:EtOH (6:4)) was “Form B, Low Crystalline”, the “Solid Form” value ([8]; H2O:MeOH (7:3)) was “Form A” and the “Solid Form” value ([8]; H2O:THF (7:3)) was “Form A”. For the same molecule, the “Solid Form” value ([8]; H2O:n-Propanol (6:4)) was “Form B, Peak Missing at 2-”, the “Solid Form” value ([8]; MTBE) was “Form A” and the “Solid Form” value ([8]; n-Heptane) was “Form A”. The “Solid Form” value ([8]; n-Heptane:1,4-dioxane (19:1)) was “Gel”, the “Solid Form” value ([8]; n-Heptane:Acetone (19:1)) was “Form A” and the “Solid Form” value ([8]; n-Heptane:IPA (19:1)) was “Form B”. For the same molecule, the “Solid Form” value ([8]; n-Heptane:Toluene (19:1)) was “Form A”, the solubility ([9]; organic solvent or mixture, 1-4-dioxane) was > 60 mg/mL and the solubility ([9]; organic solvent or mixture, 1-Butanol) was > 60 mg/mL. The solubility ([9]; organic solvent or mixture, 2-MeTHF) was > 56 mg/mL, the solubility ([9]; organic solvent or mixture, 2 butanol) was > 54 mg/mL and the solubility ([9]; organic solvent or mixture, Acetone) was > 56 mg/mL. For the same molecule, the solubility ([9]; organic solvent or mixture, Acetonitrile) was 28 to 56 mg/mL (≈ 67.5 to 135 mM), the solubility ([9]; organic solvent or mixture, CPME) was > 46 mg/mL and the solubility ([9]; organic solvent or mixture, DCM) was > 48 mg/mL. For the same molecule, the solubility ([9]; organic solvent or mixture, DMF) was > 60 mg/mL, the solubility ([9]; organic solvent or mixture, DMSO) was 8 to 24 mg/mL (≈ 19.3 to 57.9 mM) and the solubility ([9]; organic solvent or mixture, EtOH) was > 48 mg/mL. The solubility ([9]; organic solvent or mixture, IPAC) was > 48 mg/mL, the solubility ([9]; organic solvent or mixture, Isopropanol) was > 52 mg/mL and the solubility ([9]; organic solvent or mixture, MEK) was > 52 mg/mL. The solubility ([9]; organic solvent or mixture, MIBK) was > 50 mg/mL, the solubility ([9]; organic solvent or mixture, MTBE) was 28 to 56 mg/mL (≈ 67.5 to 135 mM) and the solubility ([9]; organic solvent or mixture, MeOH) was > 48 mg/mL. The solubility ([9]; organic solvent or mixture, THF) was > 50 mg/mL, the solubility ([9]; organic solvent or mixture, Toluene) was > 46 mg/mL and the solubility ([9]; organic solvent or mixture, n-Heptane) was 2.8 to 9.3 mg/mL (≈ 6.75 to 22.4 mM). The solubility ([9]; organic solvent or mixture, n-Propanol) was > 52 mg/mL, the solubility ([9]; water, H2O) was < 2.4 mg/mL and the excipient compatibility [10] was “compatible with all excipients and blends in Table 22”. The Appearance ([10]; open containers) was “White granular powder”, the degraded at 672 h ([10]; open containers, read-out: Total Related Substances) was 0.3% and the “Solid Form” value ([11]; 2-MeTHF vapor) was “Gel”. The “Solid Form” value ([11]; Acetone vapor) was “Form A”, the “Solid Form” value ([11]; CPME vapor) was “Form D” and the “Solid Form” value ([11]; EtOH vapor) was “Form F”. The “Solid Form” value ([11]; IPA vapor) was “Form A”, the “Solid Form” value ([11]; MEK vapor) was “Gel” and the “Solid Form” value ([11]; MTBE vapor) was “Form A”. For the same molecule, the “Solid Form” value ([11]; Toluene vapor) was “Form A” and the “Solid Form” value ([11]; n-Propanol vapor) was “Form A, Low Crystalline”.

In the case of Cc1c(C(=O)NN2CCCCC2)nn(-c2ccc(Cl)cc2Cl)c1-c1ccc(Cl)cc1 [Rimonabant], the “cardiometabolic parameters (waist circumference, hemoglobin A1c, HDL, plasma cholesterol, triglycerides)” value ([12]; clinical trials, obese people) is listed as “improved multiple cardiometabolic parameters”, the weight loss ([12]; clinical trials, obese people) is listed as “weight loss in obese people” and the neuropsychiatric side-effects ([12]; clinical use) is listed as “withdrawn from clinical use due to its neuropsychiatric side-effects”.
